Measurements reported in US9096591B2, “Tetracyclic compounds” (Medivation Technologies, Inc., priority 2007, dated 2015).
Read-outs that look alike come from different tables or passages of the source.

Key:
[1] = molecular target: T1, human recombinant histamine H2 receptor (Homo sapiens, UniProt P25021); experiment: Histamine H2 radioligand binding ([125I]Aminopotentidine)
T1 construct: expressed in transfected cells; host or cells: CHO-K1 cells
Method in brief: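 Test compounds were assessed for their ability to displace radioligand from the human recombinant histamine H2 receptor. Non-specific binding was determined in the presence of 3 μM Tiotidine, and results were expressed as percent inhibition of specific binding, with 1% DMSO serving as the vehicle.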

[2] = molecular target: T2, human recombinant serotonin (5-Hydroxytryptamine) 5-HT2C receptor (Homo sapiens, UniProt P28335); experiment: Serotonin 5-HT2C radioligand binding ([3H]Mesulergine); design: Inhibition of ligand binding, Ser. 5-HT2C: concentration or dose not given beside the values; details: percent inhibition of specific binding
T2 construct: expressed in transfected cells; host or cells: CHO-K1 cells
T2 sequence (P28335 33-458): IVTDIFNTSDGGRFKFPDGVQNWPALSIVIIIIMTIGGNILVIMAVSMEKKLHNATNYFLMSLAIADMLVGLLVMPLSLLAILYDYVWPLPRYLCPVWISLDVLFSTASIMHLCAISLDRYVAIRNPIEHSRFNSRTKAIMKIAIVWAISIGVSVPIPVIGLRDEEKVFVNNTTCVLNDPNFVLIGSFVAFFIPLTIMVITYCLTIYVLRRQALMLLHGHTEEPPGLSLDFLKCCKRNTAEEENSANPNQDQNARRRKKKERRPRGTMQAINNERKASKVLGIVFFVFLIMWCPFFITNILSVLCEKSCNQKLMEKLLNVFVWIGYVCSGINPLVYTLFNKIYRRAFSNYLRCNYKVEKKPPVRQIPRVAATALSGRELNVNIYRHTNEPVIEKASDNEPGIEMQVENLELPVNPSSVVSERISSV
Method: (§1) Compounds of the invention were incubated with 1 nM [^3H]Mesulergine for 60 minutes at 25° C. Non-specific binding was estimated in the presence of 1 μM Mianserin. Receptor proteins were filtered and washed, the filters were then counted to determine [^3H]Mesulergine specifically bound. […] Biochemical assay results are presented as the percent inhibition of specific binding in Table 6.

[3] = molecular target: T3, human recombinant histamine H1 receptor (Homo sapiens, UniProt P35367); experiment: Histamine H1 radioligand binding ([3H]Pyrilamine)
T3 construct: expressed in transfected cells; host or cells: CHO cells
T3 sequence (P35367 whole entry): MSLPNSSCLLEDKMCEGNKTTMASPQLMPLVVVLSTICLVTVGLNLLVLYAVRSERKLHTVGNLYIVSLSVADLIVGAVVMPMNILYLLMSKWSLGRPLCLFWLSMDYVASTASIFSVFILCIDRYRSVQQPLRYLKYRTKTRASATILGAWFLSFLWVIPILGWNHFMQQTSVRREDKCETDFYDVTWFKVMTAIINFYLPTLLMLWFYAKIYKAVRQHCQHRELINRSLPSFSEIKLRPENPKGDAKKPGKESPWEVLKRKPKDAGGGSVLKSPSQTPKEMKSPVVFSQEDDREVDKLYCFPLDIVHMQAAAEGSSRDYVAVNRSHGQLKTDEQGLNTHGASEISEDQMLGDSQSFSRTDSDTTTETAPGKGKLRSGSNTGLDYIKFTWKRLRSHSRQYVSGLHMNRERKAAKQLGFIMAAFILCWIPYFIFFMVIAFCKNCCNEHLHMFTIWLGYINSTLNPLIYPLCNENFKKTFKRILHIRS
Method in brief: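 Receptor expressed in CHO cells, assayed in 50 mM Tris-HCl pH 7.4 with 2 mM MgCl2, 100 mM NaCl, 250 mM sucrose. Compounds tested at 1 μM in 1% DMSO; non-specific binding set with 1 μM pyrilamine. Filter-bound radioactivity counted; values are percent inhibition of specific binding.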

[4] = molecular target: T4, human recombinant serotonin (5-Hydroxytryptamine) 5-HT2A receptor (Homo sapiens, UniProt P28223); experiment: Serotonin 5-HT2A radioligand binding ([3H]Ketanserin); details: percent inhibition of specific binding
T4 construct: expressed in transfected cells; host or cells: CHO-K1 cells
T4 sequence (P28223 whole entry): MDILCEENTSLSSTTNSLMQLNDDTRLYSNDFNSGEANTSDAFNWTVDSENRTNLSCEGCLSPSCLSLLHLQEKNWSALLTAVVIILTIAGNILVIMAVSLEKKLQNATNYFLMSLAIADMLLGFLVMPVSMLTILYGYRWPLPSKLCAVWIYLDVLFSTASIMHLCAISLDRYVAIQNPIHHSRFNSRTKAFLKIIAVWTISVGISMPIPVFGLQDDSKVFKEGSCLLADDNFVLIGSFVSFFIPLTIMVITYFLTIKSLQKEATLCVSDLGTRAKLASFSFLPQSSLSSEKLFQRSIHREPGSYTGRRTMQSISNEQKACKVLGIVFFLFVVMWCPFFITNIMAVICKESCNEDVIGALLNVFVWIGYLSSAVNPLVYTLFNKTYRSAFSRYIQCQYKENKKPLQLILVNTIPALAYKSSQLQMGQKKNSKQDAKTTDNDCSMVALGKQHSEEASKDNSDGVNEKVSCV
Method: as §1, with “with 0.5” for “with 1”, “nM [^3H]Ketanserin” for “nM [^3H]Mesulergine”, “determine [^3H]Ketanserin” for “determine [^3H]Mesulergine”

[5] = molecular target: T5, human recombinant adrenergic α2B receptor (Homo sapiens, UniProt P18089); experiment: Adrenergic α2B radioligand binding ([3H]Rauwolscine); design: Inhibition of ligand binding, Adren. alpha2B: concentration or dose not given beside the values; details: percent inhibition of specific binding
T5 construct: expressed in transfected cells; host or cells: CHO-K1 cells
T5 sequence (P18089 1-450): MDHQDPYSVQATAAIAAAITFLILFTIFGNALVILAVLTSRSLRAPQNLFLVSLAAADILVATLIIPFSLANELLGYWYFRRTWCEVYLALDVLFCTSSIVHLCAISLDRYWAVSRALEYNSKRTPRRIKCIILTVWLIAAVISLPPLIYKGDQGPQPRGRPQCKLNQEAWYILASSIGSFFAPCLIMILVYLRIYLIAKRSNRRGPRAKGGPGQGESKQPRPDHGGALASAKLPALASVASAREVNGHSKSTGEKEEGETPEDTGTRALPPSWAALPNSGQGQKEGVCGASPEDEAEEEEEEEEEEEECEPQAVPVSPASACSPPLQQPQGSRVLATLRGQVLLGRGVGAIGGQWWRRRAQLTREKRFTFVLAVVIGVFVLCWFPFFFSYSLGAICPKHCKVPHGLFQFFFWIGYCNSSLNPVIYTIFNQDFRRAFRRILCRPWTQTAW
Method in brief: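 Membranes from CHO-K1 cells expressing the receptor, in 50 mM Tris-HCl pH 7.4 with 12.5 mM MgCl2, 1 mM EDTA, 0.2% BSA, incubated with compounds and 2.5 nM [3H]Rauwolscine for 60 minutes at 25 °C.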

[6] = percent inhibition of specific binding, screened at 1 μM, read-out: Inhibition of ligand binding, Hist. H2
[7] = percent inhibition of specific binding, screened at 1 μM, read-out: Inhibition of ligand binding, Hist. H1
[8] = read-out: Inhibition of ligand binding, Hist. H2
[9] = read-out: Inhibition of ligand binding, Hist. H1

T1 sequence (P25021 whole entry): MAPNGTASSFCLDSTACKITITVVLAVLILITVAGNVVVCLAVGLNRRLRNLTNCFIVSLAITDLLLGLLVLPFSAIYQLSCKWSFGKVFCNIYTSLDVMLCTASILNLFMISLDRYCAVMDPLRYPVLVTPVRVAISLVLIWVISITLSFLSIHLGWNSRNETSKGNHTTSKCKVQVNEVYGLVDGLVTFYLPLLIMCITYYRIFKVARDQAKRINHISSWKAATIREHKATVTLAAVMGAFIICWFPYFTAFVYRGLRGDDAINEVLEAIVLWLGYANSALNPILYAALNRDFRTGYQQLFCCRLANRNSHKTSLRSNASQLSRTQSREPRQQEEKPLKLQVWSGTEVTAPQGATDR

Row | inhibition at 0.3 µM ([1]; 0.3 μM compound, 0.1 nM [125I]Aminopotentidine, read-out: Histamine Binding H2, percent inhibition of specific binding) | inhibition at 1 µM ([1]; 1 μM compound, 0.1 nM [125I]Aminopotentidine, read-out: Histamine Binding H2, percent inhibition of specific binding) | Structure (SMILES) | inhibition at 1 µM [1, 6] | Inhibition of ligand binding, Ser. 5-HT2C [2] | inhibition at 1 µM [3, 7] | Inhibition of ligand binding, Ser. 5-HT2A [4] | Inhibition of ligand binding, Adren. alpha2B [5] | inhibition at 1 µM [1, 8] | inhibition at 1 µM [3, 9] | inhibition at 1 µM ([1]; read-out: Histamine Binding H2, percent inhibition of specific binding) | inhibition at 1 µM ([3]; read-out: Histamine Binding H1, percent inhibition of specific binding)
1 | 40% | 58% | Cc1ccc(C(O)Cn2c3c(c4cc(C)ccc42)CN(C)CC3)cc1 (racemic) [Compound 28, racemic-2-(1,2,3,4-tetrahydro-2,8-dimethylpyrido[4,3-b]indol-5-yl)-1-p-tolylethanol] | 84% | 100% | 85% |  |  |  |  |  | 
2 |  |  | Cc1ccc(CCn2c3c(c4cc(Cl)ccc42)CN(C)CC3)cc1 [Compound 43] | 100% | 100% | 110% | 99% | 108% |  |  |  | 
3 |  |  | CN1CCc2c(c3cc(Cl)ccc3n2CCc2ccc(Cl)cc2)C1 [Compound 45, 5-(4-chlorophenethyl)-8-chloro-2,3,4,5-tetrahydro-2-methyl-1H-pyrido[4,3-b]indole] | 98% | 97% | 103% | 100% | 102% |  |  |  | 
4 |  |  | Cc1ccc(CCn2c3c(c4cc(C(F)(F)F)ccc42)CN(C)CC3)cc1 [Compound 47] | 78% | 89% | 81% | 92% | 101% |  |  |  | 
5 |  |  | Cc1ccc2c(c1)c1c(n2CCc2ccc(C)nc2)CCN(C2CC2)C1 [Compound 51] | 17% | 2% | 94% | 0% | 10% |  |  |  | 
6 |  |  | Cc1ccc(CCn2c3c(c4cc(C(F)(F)F)ccc42)CN(C)CC3)cn1 [Compound 53] | 4% | 12% | 43% | −1% | 34% |  |  |  | 
7 |  |  | CN1CCc2c(c3cc(C(F)(F)F)ccc3n2CCc2ccccc2)C1 [Compound 80, 8-(trifluoromethyl)-2,3,4,5-tetrahydro-2-methyl-5-phenethyl-1H-pyrido[4,3-b]indole] | 71% | 90% | 89% | 88% | 105% |  |  |  | 
8 |  |  | CN1CCc2c(c3c(Cl)cccc3n2CCc2ccccc2)C1 [Compound 81] | 57% | 98% | 94% | 99% | 90% |  |  |  | 
9 |  |  | CN1CCc2c(c3ccc(Cl)cc3n2CCc2ccccc2)C1 [Compound 82] | 99% | 95% | 99% | 99% | 99% |  |  |  | 
10 |  |  | CN1CCc2c(c3cccc(Cl)c3n2CCc2ccccc2)C1 [Compound 83] | 97% | 99% | 97% | 100% | 96% |  |  |  | 
11 |  |  | CN1CCc2c(c3cc(Cl)ccc3n2CCc2ccc(F)cc2)C1 [Compound 162, 5-(4-fluorophenethyl)-8-chloro-2,3,4,5-tetrahydro-2-methyl-1H-pyrido[4,3-b]indole] | 94% | 94% | 100% | 98% | 112% |  |  |  | 
12 |  |  | CN1CCc2c(c3cc(Cl)ccc3n2CCC2CCCCC2)C1 [Compound 164, 8-chloro-5-(2-cyclohexylethyl)-2,3,4,5-tetrahydro-2-methyl-1H-pyrido[4,3-b]indole] | 84% | 95% | 101% | 91% | 93% |  |  |  | 
13 |  |  | CN1CCc2c(c3cc(Cl)ccc3n2CCN2CCOCC2)C1 [Compound 186, 8-chloro-2,3,4,5-tetrahydro-2-methyl-5-(2-morpholinoethyl)-1H-pyrido[4,3-b]indole] | 25% | 89% | 97% | 84% | 79% |  |  |  | 
14 |  |  | CN1CCc2c(c3c(Cl)cccc3n2CCC2CCCCC2)C1 [Compound 187, 9-chloro-5-(2-cyclohexylethyl)-2,3,4,5-tetrahydro-2-methyl-1H-pyrido[4,3-b]indole] | 69% | 77% | 64% | 84% | 57% |  |  |  | 
15 |  |  | CN1CCc2c(c3ccc(Cl)cc3n2CCC2CCCCC2)C1 [Compound 188, 7-chloro-5-(2-cyclohexylethyl)-2,3,4,5-tetrahydro-2-methyl-1H-pyrido[4,3-b]indole] | 72% | 66% | 97% | 58% | 65% |  |  |  | 
16 |  |  | Cc1ccc2c(c1)c1c(n2CCc2ccc(C)nc2)CC(=O)N(C)C1 [Compound 195, 1,2-dihydro-2,8-dimethyl-5-(2-(6-methylpyridin-3-yl)ethyl)-4H-pyrido[4,3-b]indol-3(5H)-one] | 22% | −5% | 3% | −4% | 7% |  |  |  | 
17 |  |  | Cc1ccc2c(c1)c1c(n2CCc2ccccc2)CC(O)N(C)C1=O (stereo not shown) [Compound 215, 3,4-dihydro-3-hydroxy-2,8-dimethyl-5-phenethyl-2H-pyrido[4,3-b]indol-1(5H)-one] |  | 2% |  | −6% | −4% | 16% | -2% |  | 
18 |  |  | Cc1ccc2c(c1)c1c(n2CCc2ccc(C)nc2)CCN(C)C1=O [Compound 216] |  | −11% |  | 12% | 3% | 11% | 6% | 11% | 6%
19 |  |  | Cc1ccc2c(c1)c1c(n2CCN2CCCCC2)CCN(C)C1 [Compound 224, 2,3,4,5-tetrahydro-2,8-dimethyl-5-(2-(piperidin-1-yl)ethyl)-1H-pyrido[4,3-b]indole] | 79% | 74% | 56% | 32% | 46% |  |  |  | 
